Test results taken from patent US20240254066A1, “RESCORCINOLS, METHODS FOR THEIR MANUFACTURE, AND USES THEREOF” (GW Research Limited, priority 2021, published 2024).

Test system: tonic hind limb extensor convulsions (mouse model of generalised seizure)
Assay: mini-MEST (maximal electroshock seizure threshold) test in the mouse
Settings: for change in vivo at 5 mg/kg / change in vivo at 50 mg/kg / change in vivo at 25 mg/kg: Mus musculus, ip, change in CC50; for change in vivo at 5 mg/kg: 0.25 h, read-out: % change from vehicle, 5 mg/kg i.p., 15 min post dose; for change in vivo at 50 mg/kg / change in vivo at 25 mg/kg: 0.5 h; for change in vivo at 50 mg/kg: read-out: % change from vehicle, 50 mg/kg i.p., 30 min post dose; for change in vivo at 25 mg/kg: read-out: % change from vehicle, 25 mg/kg i.p., 30 min post dose
Description: The efficacy of novel resorcinols 2, 3, 5, 8, 10, 15, 16, 17, 18, 19, 41 45, 46, 53, 56 and 58 were tested in a novel mouse model of generalised seizure, the mini-MEST (maximal electroshock seizure threshold) test, which uses lower n numbers than typically used.
The maximal electroshock seizure threshold (MEST) test is widely utilized preclinically to evaluate pro- or anti-convulsant properties of test compounds (Loscher et al., 1991).
In the MEST test the ability of a drug to alter the seizure threshold current required to induce hind limb tonic extensor convulsions is measured according to an “up and down” method of shock titration (Kimball et al., 1957). An increase in seizure threshold is indicative of anti-convulsant effect.
The ability of a test compound to alter the stimulus intensity, expressed as current (mA), required to induce the presence of tonic hind limb extensor convulsions, is assessed in the MEST.
Naïve mice were acclimatised to the procedure room in their home cages for up to 7 days, with food and water available ad libitum.
All animals were weighed at the beginning of the study and randomly assigned to treatment groups based on a mean distribution of body weight across groups.
The first animal within a treatment group was given a shock at the expected or estimated CC50 current. For subsequent animals, the current was lowered or raised depending on the convulsions outcome from the preceding animal in log scale intervals.
Data generated from each treatment group were used to calculate the CC50±SEM values for the treatment group.
Vehicle: (5% ethanol, 10% solutol in 85% Saline) was prepared as follows: 1 mL of ethanol, 2 mL of solutol were warmed to 60° C., in 17 mL of saline (1:2:17).
The test compounds used were 2, 3, 5, 8, 10, 15, 16, 17, 18, 19, 41, 45, 46, 53, 56 and 58 Test compounds were administered at 5-50 mg/kg (i.p.) in a 1:2:17 ethanol:solutol:saline formulation.
Test compound effects were also calculated as percentage change in CC50 from the vehicle control group.
Significant difference between drug-treated animals and controls were assessed according to Litchfield and Wilcoxon (1949).

[1] = 5 mg/kg i.p., test 15 min post dose
[2] = 50 mg/kg i.p., test 30 min post dose
[3] = 25 mg/kg i.p., test 30 min post dose

SMILES: C=C(C)[C@@H]1C[C@H](O)C(C)=C[C@H]1c1c(O)cc(-c2cccnc2OC)cc1O [Compound 35, (1′R,2′R,4′S)-4-(2-Methoxypyridin-3-yl)-5′-methyl-2′-(prop-1-en-2-yl)-1′,2′,3′,4′-tetrahydro-[1,1′-biphenyl]-2,4′,6-triol]
- CC50 +/− SEM [1]: 38.0 ± 1.9 mA
- CC50 +/− SEM [2]: >131.0 mA
- change in vivo at 5 mg/kg: 62%
- change in vivo at 50 mg/kg: 457%

SMILES: C=C(C)[C@@H]1C[C@H](O)C(C)=C[C@H]1c1c(O)cc(-c2ccc3c(c2)OCO3)cc1O [Compound 41, (1′R,2′R,4′S)-4-(Benzo[d][1,3]dioxol-5-yl)-5′-methyl-2′-(prop-1-en-2-yl)-1′,2′,3′,4′-tetrahydro-[1,1′-biphenyl]-2,4′,6-triol]
- CC50 +/− SEM [1]: 50.5 ± 0.7 mA
- CC50 +/− SEM [2]: >131.0 mA
- change in vivo at 5 mg/kg: 91%
- change in vivo at 50 mg/kg: > 394%

SMILES: C=C(C)[C@@H]1C[C@H](O)C(C)=C[C@H]1c1c(O)cc(-c2cccc3c2OCO3)cc1O [Compound 42, (1′R,2′R,4′S)-4-(Benzo[d][1,3]dioxol-4-yl)-5′-methyl-2′-(prop-1-en-2-yl)-1′,2′,3′,4′-tetrahydro-[1,1′-biphenyl]-2,4′,6-triol]
- CC50 +/− SEM [2]: >131.0 mA
- change in vivo at 50 mg/kg: 457%

SMILES: C=C(C)[C@@H]1C[C@H](O)C(C)=C[C@H]1c1c(O)cc(CCC)c(F)c1O [Compound 45, (1′R,2′R,4′S)-3-fluoro-5′-methyl-2′-(prop-1-en-2-yl)-4-propyl-1′,2′,3′,4′-tetrahydro-[1,1′-biphenyl]-2,4′,6-triol]
- CC50 +/− SEM [1]: 35.5 +/− 0.5 mA
- change in vivo at 5 mg/kg: 58%

SMILES: C=C(C)[C@@H]1C[C@H](O)C(C)=C[C@H]1c1c(O)cc(CCC)c(Cl)c1O [Compound 46, (1′R,2′R,4′S)-3-chloro-5′-methyl-2′-(prop-1-en-2-yl)-4-propyl-1′,2′,3′,4′-tetrahydro-[1,1′-biphenyl]-2,4′,6-triol]
- CC50 +/− SEM [2]: 84.0 ± 3.4 mA
- change in vivo at 50 mg/kg: 217%

SMILES: C=C(C)[C@@H]1C[C@H](O)C(C)=C[C@H]1c1c(O)cc(Br)c(Cl)c1O [Compound 47, (1′R,2′R,4′S)-4-bromo-3-chloro-5′-methyl-2′-(prop-1-en-2-yl)-1″,2″,3′,4′-tetrahydro-[1,1′-biphenyl]-2,4′,6-triol]
- CC50 +/− SEM [3]: 79.5 ± 10.0 mA
- change in vivo at 25 mg/kg: 238%

SMILES: C=C(C)[C@@H]1C[C@H](O)C(C)=C[C@H]1c1c(O)cc(-c2cccc(OC)c2)c(Cl)c1O [Compound 49, (1R,2R,4S)-3′-Chloro-3″-methoxy-5-methyl-2-(prop-1-en-2-yl)-1,2,3,4-tetrahydro-[1,1′:4′,1″-terphenyl]-2′,4,6′-triol]
- CC50 +/− SEM [2]: 97.5 ± 1.3 mA
- change in vivo at 50 mg/kg: 244%

SMILES: C=C(C)[C@@H]1C[C@H](O)C(C)=C[C@H]1c1c(O)c(C)c(-c2ccnc(OC)c2)c(C)c1O [Compound 52, (1′R,2′R,4′S)-4-(2-Methoxypyridin-4-yl)-3,5,5′-trimethyl-2′-(prop-1-en-2-yl)-1′,2′,3′,4′-tetrahydro-[1,1′-biphenyl]-2,4′,6-triol]
- CC50 +/− SEM [1]: 31.0 ± 4.5 mA
- CC50 +/− SEM [2]: 76.5 ± 2.6 mA
- change in vivo at 5 mg/kg: 9%
- change in vivo at 50 mg/kg: 170%

SMILES: C=C(C)[C@@H]1C[C@H](OC)C(C)=C[C@H]1c1c(O)cc(CCC)cc1O [Compound 53, (1′R,2′R,4′S)-4′-Methoxy-5′-methyl-2′-(prop-1-en-2-yl)-4-propyl-1′,2″,3′,4′-tetrahydro-[1,1′-biphenyl]-2,6-diol]
- CC50 +/− SEM [3]: 29.0 +/− 1.5 mA
- change in vivo at 25 mg/kg: 29%

SMILES: C=C(C)[C@@H]1C[C@H](O)C(C)=C[C@H]1c1c(O)cc(-c2ccnc(C(F)(F)F)c2)cc1O [Compound 58, (1′R,2′R,4′S)-5′-Methyl-2′-(prop-1-en-2-yl)-4-(2-(trifluoromethyl)pyridin-4-yl)-1′,2′,3′,4′-tetrahydro-[1,1′-biphenyl]-2,4′,6-triol]
- CC50 +/− SEM [2]: 88.5 ± 1.3 mA
- change in vivo at 50 mg/kg: 234%
